One assay relates to HCT116 cells. The experiment in a line: alamarBlue cell viability assay, HCT116. In kind it is cell-based. Conditions: Homo sapiens, HCT-116, 72 h, KRas mutant, read-out: HCT116 IC50 ± SEM. From the text:
(§1) Cell viability and proliferation assays were used to evaluate the in vitro cytotoxicity of all synthesised compounds in a variety of different cancer cell lines using the alamarBlue® viability assay and the results are presented in Table 1 and Table 2. The sensitivity of cancer cells to drugs can often be compromised by PIK3CA, Ras and BRAF mutations. To determine whether such mutations are critical to the efficacy of our new compounds we tested them in a range of cancerous cell lines expressing different mutations. Firstly, we used the HL-60 (human promyelocytic leukaemia, NRas mutated) cell line for general cytotoxicity screening of all compounds. […] Lastly, toxicity against MCF-10A, which is a non-tumorigenic epithelial cell line, was also assessed for one of the most promising compounds (4). The graphs representing the viability results with the HL-60, MCF-7, HeLa, HCT-116, and HKH-2 cancer cell lines for compound 1 and derivatives 2, 3, and 4 are shown in Figures S7–S10 (ESI).
(§2) Cells were counted and seeded in 96-well plates at a density of 2 × 10^5 cells/mL for HL-60, 2.5 × 10^4 cells/mL for MCF-7, MCF10A and HeLa, 1 × 10^5 cells/mL for HCT116 and HKH-2, all of them in their respective media. The 96-well plates were then treated with a 1:100 dilution of stock concentrations of drugs or EtOH (1% v/v)/DMSO (0.1% v/v) as vehicle control in triplicate. Three blank wells containing 200 µL RPMI with no cells were also set-up as blanks. After a 72 h incubation, 20 µL of alamarBlue was added to each well. The plates were incubated in darkness at 37 °C for 4–5 h using a Molecular Devices microplate reader, the fluorescence (F) was then read at an excitation wavelength of 544 nm and an emission wavelength of 590 nm. Cell viability was then determined by subtracting the mean blank fluorescence (Fb) from the treated sample fluorescence (Fs) and expressing this as a percentage of the fluorescence of the blanked vehicle control (Fc). […] The results were then plotted as a nonlinear regression, sigmoidal dose-response curves on Prism, from which the IC50 value for each drug was determined.
(§3) The MCF-7 (human breast tumour) cell line was obtained from Prof. Mary Meegan, School of Pharmacy, TCD. It was maintained in Roswell Park Memorial Institute (RPMI) 1640 medium with stable glutamate (GlutaMax I) supplemented with 10% (v/v) fetal bovine serum (FBS), 1% (v/v) penicillin/ streptomycin (pen-strep) and 2 mM L-glutamine.
(§4) The HeLa (human epitheloid cervix carcinoma) cell line was obtained from Prof. Thorfinnur Gunnlaugsson, School of Chemistry TCD. It was maintainedin Dulbecco's Modified Eagle's Medium (DMEM) supplemented with 10% (v/v) fetal bovine serum (FBS) and 1%(v/v) penicillin/ streptomycin (pen-strep).
(§5) The HCT116and HKH-2 (human colon cancer cells) cell lines were obtained from Prof. James Murray, School of Biochemistry and Immunology TCD. They were maintainedin Dulbecco's Modified Eagle's Medium (DMEM) supplemented with 10% (v/v) fetal bovine serum (FBS), 1% (v/v) penicillin/ streptomycin (pen-strep), 1% (v/v) sodium pyruvate (NaPyr), 1% (v/v) L-glutamine (L-Glu) and, only for HKH-2, 0.6 mg/mL geneticine (G418).
(§6) MCF-10A (human breast epithelial) cell line was obtained from Prof. Mary Meegan, School of Pharmacy, TCD. […]
(§7) Cells were counted and seeded in 96 well plates at a density of 2 × 10^5 cells/mL for HL-60, 2.5× 10^4 cells/mL for MCF-7, MCF10A and HeLa, 1 × 10^5 cells/mL for HCT116 and HKH-2, all of them in their respective media. […]
A general note: Alamar Blue is a resazurin reagent that responds to reducing activity.

Assay [1] concerns BRAF. Further details: method as in PMID 24858546, PMID 26318998. Conditions: in vitro; cited from earlier work.
The next assay concerns HeLa cells. The experiment in a line: alamarBlue cell viability assay, HeLa. Particulars: Homo sapiens, 72 h, read-out: HeLa IC50 ± SEM. It is filed as cell-based.
Source text: as §1, §2, §3, §4, §5, §6, §7

For assay [2], the system named is HL-60 cells. Further details: method as in PMID 24858546. Conditions: alamarBlue; previously tested compound; read-out: HL-60 IC50 ± SEM; cited from earlier work.
Another assay deals with HKH-2 cells. Description: alamarBlue cell viability assay, HKH-2. In kind it is cell-based. Conditions: Homo sapiens, 72 h, mutated KRas disrupted, read-out: HKH-2 IC50 ± SEM.
Source text: as §1, §2, §3, §4, §5, §6, §7

The subject of assay [3] is ERK phosphorylation (MAPK/ERK pathway). Description: Western immunoblot of ERK phosphorylation in HL-60 extracts. Particulars: HL-60, 5 and 10 μM, 16 h. It is filed as cell-based, human. As for the experimental part: Thus, using Western immunoblot analysis of HL-60 extracts, we investigated the expression and phosphorylation levels of ERK (as an indication of ERK activation), which is the downstream effector of the Ras/BRAF signalling pathway (Figure 6).
HL60s were seeded in T25 flasks at 50 × 10^4 cells/mL and cells were treated with either vehicle [0.5% EtOH (v/v)], 1–4, 9 or 52 (5 µM), as well as 1 (10 µM as reported). After 16 h, cells were collected and washed with PBS. Cell pellets were re-suspended in cold cell lysis buffer (radio-immunoprecipitation assay buffer) supplemented with 1% phosphatase inhibitor cocktail 2 and 3 (Sigma) and 10% protease inhibitor (Roche). Cells were lysed for 30 min on ice. Protein concentration was then determined by BCA assay. Lysates were boiled with Laemmli sample buffer [Tris-HCL 50 mM (pH 6.7), glycerol 10% (w/v), sodium dodecyl sulphate 2% (w/v), bromophenol blue 0.02% (w/v)] containing DTT […] for 10 min at 90 °C. Moreover, 20 µg of lysates were resolved by sodium dodecyl sulphate polyacrylamide gel electrophoresis (SDS-PAGE) and transferred onto PVDF transfer membrane (EMD Millipore). Membranes were blocked with 5% non-fat milk and probed with primary antibodies for ERK and phospho-ERK (Cell Signalling). Anti-GAPDH was used as a loading control (Calbiochem).
Figure 6 Western immunoblot of HL-60 cell extracts following incubation with compounds 2, 3, 4, 9, 52 and 1 (as a control). HL60 cells were seeded at 2 × 10^5 cells/mL and were treated with either vehicle [0.5% EtOH (v/v)], compounds 52, 2, 9, 3 and 4 (5 µM) or compound 1 (5 and (*) 10 µM, as in reference) for 16 h. Cells were lysed and equal amounts of protein were loaded and separated on 15% SDS-PAGE gels, transferred to PVDF membrane and probed with antibodies against total and phosphorylated ERK. Anti-GAPDH was used as a loading control. Results are representative of 2 independent experiments.
HL-60 cells were seeded in T25 flasks at 50 x10^4 cells/mL and treated with either vehicle [0.5% […]
After 16 hours, cells were […]
collected and washed with PBS. Cell pellets were re-suspended in cold cell lysis buffer (radio-immunoprecipitation assay buffer) supplemented with 1% phosphatase inhibitor cocktail 2 and 3 (Sigma) and 10% protease inhibitor (Roche). Cells were lysed for 30 minutes on ice.
Protein concentration was then determined by BCA assay. Lysates were boiled with laemmli sample buffer [Tris-HCL 50 mM (pH 6.7), glycerol 10% (w/v), sodium dodecyl sulphate 2% (w/v), bromophenol blue 0.02% (w/v)] containing DTT […] for 10 min. at 90 °C. Also 20 µg of lysates were resolved by sodium dodecyl sulphate polyacrylamide gel electrophoresis (SDS - PAGE) and transferred onto PVDF transfer membrane (EMD Millipore). Membranes were blocked with 5% non-fat milk and probed with primary antibodies for ERK and phospho-ERK (Cell Signaling). Anti-GAPDH was used as a loading control (Calbiochem).

The subject of assay [4] is BRAF. Further details: method as in PMID 24858546, PMID 26318998. Particulars: cited from earlier work.
The next assay relates to MCF-7 cells. Description: alamarBlue cell viability assay, MCF-7. It is filed as cell-based. Conditions: Homo sapiens, MCF7, 72 h, read-out: MCF-7 IC50 ± SEM.
Source text: as §1, §2, §3, §4, §5
MCF-10A (human breast epithelial) cell line was obtained from Prof. Mary Meegan, School of Pharmacy, TCD. It was cultured in Dulbecco’s Modified Eagle Medium/Nutrient Mixture F-12 (DMEM/F12; Gibco) supplemented with 5% horse serum (Invitrogen), 20 ng/mL epidermal growth factor (Merck Millipore), 0.5 μg/mL hydrocortisone (Sigma), 100 ng/mL cholera toxin (Sigma), 10 μg/mL insulin (Sigma), and penicillin/streptomycin (1% v/v) (Gibco).
(§8) 4.4. AlamarBlue ® Cell Viability Assay
Cells were counted and seeded in 96 well plates at a density of 2 × 10^5 cells/mL for HL-60, 2.5× 10^4 cells/mL for MCF-7, MCF10A and HeLa, 1 × 10^5 cells/mL for HCT116 and HKH-2, all of them in their respective media. The 96 well plates were then treated with a 1:100 dilution of stock concentrations of drugs or EtOH (1% v/v)/DMSO (0.1% v/v) as vehicle control in triplicate. […]

Assay [5] concerns HL-60 cells. Description: alamarBlue cell viability assay, HL-60. It is filed as cell-based. Particulars: Homo sapiens, HL-60, 72 h, read-out: HL-60 IC50 ± SEM.
Source text: as §1
as §2, with “determined. […]” for “determined.”
Pharmacy, TCD. It was maintained in Roswell Park Memorial Institute (RPMI) 1640 medium with stable glutamate (GlutaMax I) supplemented with 10% (v/v) fetal bovine serum (FBS), 1% (v/v) penicillin/ streptomycin (pen-strep) and 2 mM L-glutamine. […]
as §8
Cells were counted and seeded in 96 well plates at a density of 2 × 10^5 cells/mL for HL-60, 2.5× 10^4 cells/mL for MCF-7, MCF10A and HeLa, 1 × 10^5 cells/mL for HCT116 and HKH-2, all of them in their respective media. The 96 well plates were then treated with a 1:100 dilution of stock concentrations of drugs or EtOH (1% v/v)/DMSO (0.1% v/v) as vehicle control in triplicate.
Three blank wells containing 200 µL media with no cells were also set-up as blanks. After a 72 h incubation, 20 µL of AlamarBlue was added to each well. The plates were incubated in darkness at 37 °C for 4-5 h. Using a Molecular Devices microplate reader, the fluorescence (F) was then read at an excitation wavelength of 544 nm and an emission wavelength of 590 nm.
Cell viability was then determined by subtracting the mean blank fluorescence (Fb) from the treated sample fluorescence (Fs) and expressing this as a percentage of the fluorescence of the blanked vehicle control (Fc). […] The results were […]
then plotted as a nonlinear regression, sigmoidal dose-response curves on Prism, from which the IC50 value for each drug was determined.
Fs − Fb x 100 = % Cell Viability
60 cell line in a dose-dependent manner.
(1 picture or pasted object on this page, not shown here)

Entries after “also recorded” stand apart in the source; their conditions may differ. Where a name gives a salt, the structure may show the parent alone. Read-outs that look alike come from different tables or passages of the source.

In the case of `N=C(N)Nc1ccc(Oc2cccc(NC(=N)Nc3ccc(Cl)c(C(F)(F)F)c3)c2)cc1` [Compound 1], the IC50 was 9.96 ± 0.6 µM in the assay with HCT116 cells; 9.48 ± 0.16 µM in the assay with HeLa cells; 9.72 ± 0.9 µM in the assay on HL-60 cells [2]; 19.2 ± 0.84 µM in the assay on HKH-2 cells; 9.3 ± 1.87 µM in the assay with MCF-7 cells. Also, the “BRAF activity in radiometric assay” value in the assay with BRAF [1] is recorded as “inhibited in vitro”. Moreover, the “effect on ERK phosphorylation (Ras/BRAF pathway)” value in assay [3] was “inhibiting ERK phosphorylation; also recorded: abrogates ERK activation”. Further, in the assay with BRAF [4], the “inhibition of ATP binding to BRAF” value is listed as “did not inhibit ATP binding to BRAF”.

Take `N=C(N)Oc1ccc(Oc2cccc(Nc3ccc(Cl)c(C(F)(F)F)c3)c2)cc1` [Compound 70, 4-(3-((4-Chloro-3-(trifluoromethyl)phenyl)amino)phenoxy)phenyl carbamimidate hydrochloride]: the IC50 with HL-60 cells [5] (alamarBlue, 72 h) came to 4.22 ± 0.04 µM; in the assay on MCF-7 cells, 7.32 ± 0.35 µM.

On to `CNC(=O)c1cc(Oc2ccc(NC(=O)Nc3ccc(Cl)c(C(F)(F)F)c3)cc2)ccn1` [Sorafenib, reference compound], for which the IC50 with HCT116 cells stood at 6.79 ± 0.18 µM; with HeLa cells, 4.59 ± 0.45 µM; in the assay on HKH-2 cells, 4.43 ± 0.39 µM; in the assay with HL-60 cells [5] it was 2.53 ± 0.68 µM; in the assay on MCF-7 cells, 3.07 ± 0.1 µM.

Usually IC50 stands for the point on the concentration scale where inhibition reaches its midpoint.

The record behind these values is PMC7767381, “Exploring the Anti-Cancer Mechanism of Novel 3,4′-Substituted Diaryl Guanidinium Derivatives” (Pharmaceuticals, 2020).
